# Laboratory results reported in patent US9175003B2, “Substituted azoanthracene derivatives and intermediates for preparation thereof” (TransTech Pharma, LLC, priority 2009, dated 2015).
# Biological target: human GLP-1 receptor (Homo sapiens (Human), UniProt P43220)
# Conditions: read-out: Mean EC50; cAMP, HTRF detection, 30 min at 37° C., HEK-293 cells expressing cloned human GLP-1 receptor
# Protocol: Following overnight incubation of cells, media was removed, and compounds (at concentrations ranging from 0.0001 to 100 μM) were added to monolayer cells in Iscove's modified dulbecco's medium (IMDM), 100 μM RO 20-1724 PDE inhibitor, 0.1% BSA, 2% DMSO in a final volume of 100 μL, and incubated for 30 min at 37° C. […] Alternatively, cells were harvested and combined with compounds in suspension using the buffer and protocol described above. cAMP was quantified using a homogenous time-resolved fluorescence detection system (cAMP dynamic, CIS bio International).
# Sequence of human GLP-1 receptor (P43220 24-463): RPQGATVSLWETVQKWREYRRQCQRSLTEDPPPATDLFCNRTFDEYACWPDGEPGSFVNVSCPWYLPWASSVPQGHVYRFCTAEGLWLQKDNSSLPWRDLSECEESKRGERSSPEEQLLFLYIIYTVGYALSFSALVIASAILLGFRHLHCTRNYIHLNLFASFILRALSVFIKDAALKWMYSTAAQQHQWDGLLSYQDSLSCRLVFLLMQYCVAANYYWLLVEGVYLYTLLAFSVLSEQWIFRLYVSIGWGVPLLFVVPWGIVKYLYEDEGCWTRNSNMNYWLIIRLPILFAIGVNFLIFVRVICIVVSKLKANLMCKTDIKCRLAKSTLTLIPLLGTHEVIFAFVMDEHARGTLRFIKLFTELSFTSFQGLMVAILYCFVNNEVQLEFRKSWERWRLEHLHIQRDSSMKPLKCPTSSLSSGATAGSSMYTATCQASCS
row,SMILES,EC50 [nM]
1,"CC(=O)Nc1nc(-c2ccc(S(=O)(=O)N3Cc4cc5c(cc4C[C@H]3C(=O)N[C@@H](Cc3ccc(-c4ccc(C#N)cc4)cc3)C(=O)O)OCC(c3ccc(OCc4ccc(Cl)c(Cl)c4)cc3)O5)cc2)cs1 (stereo in doubt) [Example 138, (S)-2-({(S)-7-[4-(2-Acetylamino-thiazol-4-yl)-benzenesulfonyl]-3-[4-(3,4-dichloro-benzyloxy)-phenyl]-2,3,6,7,8,9-hexahydro-[1,4]dioxino[2,3-g]isoquinoline-8-carbonyl}-amino)-3-(4′-cyano-biphenyl-4-yl)-propionic acid]",241
2,"CC[C@@H](c1ccccc1)N1Cc2cc3c(cc2C[C@H]1C(=O)N[C@@H](Cc1ccc(-c2ccc(C#N)cc2)cc1)C(=O)O)OC[C@H](c1ccc(OCc2ccc(Cl)c(Cl)c2)cc1)O3 [Example 72, (S)-3-(4′-Cyano-biphenyl-4-yl)-2-{[(3S,8S)-3-[4-(3,4-dichloro-benzyloxy)-phenyl]-7-((S)-1-phenyl-propyl)-2,3,6,7,8,9-hexahydro-[1,4]dioxino[2,3-g]isoquinoline-8-carbonyl]-amino}-propionic acid]",480
3,"CCC[C@@H](c1ccccc1)N1Cc2cc3c(cc2C[C@H]1C(=O)N[C@@H](Cc1ccc(-c2ccc(C#N)cc2)cc1)C(=O)O)OC[C@H](c1ccc(OCc2ccc(Cl)c(Cl)c2)cc1)O3 [Example 178, (S)-3-(4′-Cyano-biphenyl-4-yl)-2-{[(3S,8S)-3-[4-(3,4-dichloro-benzyloxy)-phenyl]-7-((S)-1-phenyl-butyl)-2,3,6,7,8,9-hexahydro-[1,4]dioxino[2,3-g]isoquinoline-8-carbonyl]-amino}-propionic acid]",306
4,"CC[C@@H](c1ccccc1)N1Cc2cc3c(cc2C[C@H]1C(=O)N[C@@H](Cc1ccc(-c2ccnc(C)c2C)cc1)C(=O)O)OC[C@H](c1ccc(OCCC(C)(C)C)cc1)O3 [Example 168, (S)-2-{[(3S,8S)-3-[4-(3,3-Dimethyl-butoxy)-phenyl]-7-((S)-1-phenyl-propyl)-2,3,6,7,8,9-hexahydro-[1,4]dioxino[2,3-g]isoquinoline-8-carbonyl]-amino}-3-[4-(2,3-dimethyl-pyridin-4-yl)-phenyl]-propionic acid]",114
5,"CCCCNc1nc(C)c(S(=O)(=O)N2Cc3cc4c(cc3C[C@H]2C(=O)N[C@@H](Cc2ccc(-c3ccc(C#N)cc3)cc2)C(=O)O)OCC(c2ccc(OCc3ccc(Cl)c(Cl)c3)cc2)O4)s1 (stereo in doubt) [Example 109, (S)-2-({(S)-7-(2-Butylamino-4-methyl-thiazole-5-sulfonyl)-3-[4-(3,4-dichloro-benzyloxy)-phenyl]-2,3,6,7,8,9-hexahydro-[1,4]dioxino[2,3-g]isoquinoline-8-carbonyl}-amino)-3-(4′-cyano-biphenyl-4-yl)-propionic acid]",298
6,"Cc1nc(NCC2CC2)ccc1S(=O)(=O)N1Cc2cc3c(cc2C[C@H]1C(=O)N[C@@H](Cc1ccc(-c2ccc(C#N)cc2)cc1)C(=O)O)OC[C@H](c1ccc(OCc2ccc(Cl)c(Cl)c2)cc1)O3 [Example 144, (S)-3-(4′-Cyano-biphenyl-4-yl)-2-({(3S,8S)-7-[6-(cyclopropylmethyl-amino)-2-methyl-pyridine-3-sulfonyl]-3-[4-(3,4-dichloro-benzyloxy)-phenyl]-2,3,6,7,8,9-hexahydro-[1,4]dioxino[2,3-g]isoquinoline-8-carbonyl}-amino)-propionic acid]",245
7,"Cc1nc(NC(=O)C(F)(F)F)sc1S(=O)(=O)N1Cc2cc3c(cc2C[C@H]1C(=O)N[C@@H](Cc1ccc(-c2ccc(C#N)cc2)cc1)C(=O)O)OCC(c1ccc(OCc2ccc(Cl)c(Cl)c2)cc1)O3 (stereo in doubt) [Example 70, (S)-3-(4′-Cyano-biphenyl-4-yl)-2-({(S)-3-[4-(3,4-dichloro-benzyloxy)-phenyl]-7-[4-methyl-2-(2,2,2-trifluoro-acetylamino)-thiazole-5-sulfonyl]-2,3,6,7,8,9-hexahydro-[1,4]dioxino[2,3-g]isoquinoline-8-carbonyl}-amino)-propionic acid]",259
8,"Cc1nc(C(=O)N2Cc3cc4c(cc3C[C@H]2C(=O)N[C@@H](Cc2ccc(-c3ccnc(C)c3C)cc2)C(=O)O)OC[C@H](c2ccc(OCCC(C)(C)C)cc2)O4)c(C)o1 [Example 380, (S)-2-{[(3S,8S)-3-[4-(3,3-dimethyl-butoxy)-phenyl]-7-(2,5-dimethyl-oxazole-4-carbonyl)-2,3,6,7,8,9-hexahydro-[1,4]dioxino[2,3-g]isoquinoline-8-carbonyl]-amino}-3-[4-(2,3-dimethyl-pyridin-4-yl)-phenyl]-propionic acid]",213

# Further lines, results first:
row,EC50 [nM],SMILES
1,174,"CC[C@@H](c1ccccc1)N1Cc2cc3c(cc2C[C@H]1C(=O)N[C@@H](Cc1ccc(-c2ccnc(C)c2C)cc1)C(=O)O)OC[C@H](c1ccc(OCCC2CCCC2)cc1)O3 [Example 167, (S)-2-{[(3S,8S)-3-[4-(2-Cyclopentyl-ethoxy)-phenyl]-7-((S)-1-phenyl-propyl)-2,3,6,7,8,9-hexahydro-[1,4]dioxino[2,3-g]isoquinoline-8-carbonyl]-amino}-3-[4-(2,3-dimethyl-pyridin-4-yl)-5 phenyl]-propionic acid]"
2,74,CC[C@@H](c1ccccc1)N1Cc2cc3c(cc2C[C@H]1C(=O)N[C@@H](Cc1ccc(Oc2ccncc2)cc1)C(=O)O)OC[C@H](c1ccc(OCc2ccc(Cl)c(Cl)c2)cc1)O3 [Example 184]
3,95,"Cc1nccc(-c2ccc(C[C@H](NC(=O)[C@@H]3Cc4cc5c(cc4CN3C(=O)N[C@H](C)c3ccccc3)O[C@@H](c3ccc(OCc4cc(F)cc(F)c4)cc3)CO5)C(=O)O)cc2)c1C [Example 365, (S)-2-{[(3S,8S)-3-[4-(3,5-Difluoro-benzyloxy)-phenyl]-7-((R)-1-phenyl-ethylcarbamoyl)-2,3,6,7,8,9-hexahydro-[1,4]dioxino[2,3-g]isoquinoline-8-carbonyl]-amino}-3-[4-(2,3-dimethyl-pyridin-4-yl)-phenyl]-propionic acid]"
4,185,"CCNc1nc(S(=O)(=O)N2Cc3cc4c(cc3C[C@H]2C(=O)N[C@@H](Cc2ccc(-c3ccc(C#N)cc3)cc2)C(=O)O)OCC(c2ccc(OCc3ccc(Cl)c(Cl)c3)cc2)O4)c(C)s1 (stereo in doubt) [Example 96, (S)-3-(4′-Cyano-biphenyl-4-yl)-2-{[(S)-3-[4-(3,4-dichloro-benzyloxy)-phenyl]-7-(2-ethylamino-5-methyl-thiazole-4-sulfonyl)-2,3,6,7,8,9-hexahydro-[1,4]dioxino[2,3-g]isoquinoline-8-carbonyl]-amino}-propionic acid]"
5,187,"Cc1ncoc1C(=O)N1Cc2cc3c(cc2C[C@H]1C(=O)N[C@@H](Cc1ccc(Oc2ccnc(C)c2C)cc1)C(=O)O)OC[C@H](c1ccc(OCc2ccc(Cl)c(Cl)c2)cc1)O3 [Example 263, (S)-2-{[(3S,8S)-3-[4-(3,4-Dichloro-benzyloxy)-phenyl]-7-(4-methyl-oxazole-5-carbonyl)-2,3,6,7,8,9-hexahydro-[1,4]dioxino[2,3-g]isoquinoline-8-carbonyl]-amino}-3-[4-(2,3-dimethyl-pyridin-4-yloxy)-phenyl]-propionic acid]"
6,214,"CCC(=O)Nc1nc(C)c(S(=O)(=O)N2Cc3cc4c(cc3C[C@H]2C(=O)N[C@@H](Cc2ccc(-c3ccc(C#N)cc3)cc2)C(=O)O)OCC(c2ccc(OCc3ccc(Cl)c(Cl)c3)cc2)O4)s1 (stereo partly drawn) [Example 132, (S)-3-(4′-Cyano-biphenyl-4-yl)-2-{[(S)-3-[4-(3,4-dichloro-benzyloxy)-phenyl]-7-(4-methyl-2-propionylamino-thiazole-5-sulfonyl)-2,3,6,7,8,9-hexahydro-[1,4]dioxino[2,3g]isoquinoline-8-carbonyl]-amino}-propionic acid]"
7,21,"Cc1nc(C)c(C(=O)N2Cc3cc4c(cc3C[C@H]2C(=O)N[C@@H](Cc2ccc(-c3ccnc(C)c3C)cc2)C(=O)O)OC[C@H](c2ccc(OCc3ccc(Cl)c(Cl)c3)cc2)O4)o1 [Example 432, (S)-2-{[(3S,8S)-3-[4-(3,4-Dichloro-benzyloxy)-phenyl]-7-(2,4-dimethyl-oxazole-5-carbonyl)-2,3,6,7,8,9-hexahydro-[1,4]dioxino[2,3-g]isoquinoline-8-carbonyl]-amino}-3-[4-(2,3-dimethyl-pyridin-4-yl)-phenyl]-propionic acid]"
8,45,"Cc1nccc(-c2ccc(C[C@H](NC(=O)[C@@H]3Cc4cc5c(cc4CN3C(=O)c3cc(F)cc(F)c3)O[C@@H](c3ccc(OCc4ccc(Cl)c(Cl)c4)cc3)CO5)C(=O)O)cc2)c1C [Example 278, (S)-2-{[(3S,8S)-3-[4-(3,4-Dichloro-benzyloxy)-phenyl]-7-(3,5-difluoro-benzoyl)-2,3,6,7,8,9-hexahydro-[1,4]dioxino[2,3-g]isoquinoline-8-carbonyl]-amino}-3-[4-(2,3-dimethyl-pyridin-4-yl)-phenyl]-propionic acid]"
9,85,"Cc1cccc(NC(=O)N2Cc3cc4c(cc3C[C@H]2C(=O)N[C@@H](Cc2ccc(-c3ccnc(C)c3C)cc2)C(=O)O)OC[C@H](c2ccc(OCc3ccc(Cl)c(Cl)c3)cc2)O4)c1 [Example 253, (S)-2-({(3S,8S)-3-[4-(3,4-Dichloro-benzyloxy)-phenyl]-7-m-tolylcarbamoyl-2,3,6,7,8,9-hexahydro-[1,4]dioxino[2,3-g]isoquinoline-8-carbonyl}-amino)-3-[4-(2,3-dimethyl-pyridin-4-yl)-phenyl]-propionic acid]"
10,103,"Cc1nccc(-c2ccc(C[C@H](NC(=O)[C@@H]3Cc4cc5c(cc4CN3C(=O)c3ccccc3)O[C@@H](c3ccc(O[C@H]4CC[C@H](C)CC4)cc3)CO5)C(=O)O)cc2)c1C [Example 306, (S)-2-({(3S,8S)-7-Benzoyl-3-[4-(trans-4-methyl-cyclohexyloxy)-phenyl]-2,3,6,7,8,9-hexahydro-[1,4]dioxino[2,3-g]isoquinoline-8-carbonyl}-amino)-3-[4-(2,3-dimethyl-pyridin-4-yl)-phenyl]-propionic acid]"
